Here are results for four compounds from patent US20260015339A1, “CALIX[4]ARENES WITH HIGH ANTICANCER ACTIVITY” (UNIVERSITE GRENOBLE ALPES, priority 2023, published 2026).

Structures are written as SMILES. Bounds are passed on as bounds.

Experiment [1] can be described thus: Cu^+ binding by 1H NMR titration. The following applies: 1H NMR titration with Cu(MeCN)4BF4, CD3CN/CDCl3 4/1, 298 K. How it is done: Binding abilities and complexation constants of the examples of calix[4]arenes of the present invention and the comparative examples with Cu^+ were evaluated by ^1H NMR titrations at 298 K using copper(I)tetrakis(acetronitrile)tetrafluoroborate.
For example, for each separate calix[4]arene a stock solution of the tested calix[4]arene was prepared in a CD3CN/CDCl3, 4/1 mixture. Using this stock solution, a Cu(MeCN)4BF4 solution was prepared and added by steps of 0.25 equivalent of copper(I) up until 1 equivalent and then by steps of 0.5 equivalent until a total of at least 2 equivalents. ^1H NMR spectra were recorded at a 400 MHz spectrometer at 298 K for the stock solutions of the calix[4]arenes and after each addition of Cu(MeCN)4BF4.
Calix[4]arenes for which a gradual change of the chemical shifts of the ^1H NMR signals (>0.1 ppm for at least one of the signals) was observed upon addition of up to 4-5 equivalents of Cu(MeCN)4BF4 were considered to show weak binding.

Experiment [2] can be described thus: Cu^+ transport into liposomes with encapsulated BCS. The following applies: POPC/cholesterol 7:3 LUVs, calix[4]arene to lipid 1:1000, 50 μM copper gradient, F/F0 after 600 s. On the procedure:
The ability of the examples of calix[4]arenes of the invention and the comparative examples to be delivered into a lipidic bilayer membrane of a liposome from a solution and their capacity to then act as a transporter of Cu^+ was evaluated using bathocuproine disulphonate (hereafter abbreviated “BCS”) encapsulated in large unilamellar vesicles (LUVs, also referred to as liposomes) composed of 1-palmitoyl-2-oleoyl-sn-glycero-3-phosphocholine and cholesterol in a 7:3 ratio.
BCS is a fluorescent water soluble phenantroline derivative that can be used as fluorescent dye for the sensing of Cu^+ through the formation of a non-fluorescent 2:1 complex.
Stock solution of lipids were prepared using deacidified CHCl3 and stored in a freezer. CHCl3 was deacidified by passing through activated basic alumina. The lipids used to prepare the liposomes were 2-oleoyl-1-palmitoyl-sn-glycero-3-phosphocholine (POPC), (purity ≥99%) and cholesterol (purity of 95%). 50 mM sodium phosphate buffer were prepared with Millipore water at pH 7 (±0.1) by mixing the solution of the mono- and the di-protonated phosphate salts. The solution of the dye (BCS) was prepared at 0.5 mM concentration in phosphate buffer.
The lipids solutions were mixed in different ratios in a 5 mL round bottom flask. The POPC/cholesterol molar ratio was 7:3 in all experiments. The total amount of lipids per batch varied depending on the amount of liposomes solution required for the experiment. After mixing the lipid solutions in a round bottom flask, the chloroform was evaporated under a gentle air flow and the resulting lipid film was dried at high vacuum for at least an hour. 500 μL of the BCS solution in phosphate buffer and a magnetic stir bar were added to the flask. The flask was then sonicated for 30 seconds and placed under magnetic agitation for at least an hour. The solution was frozen with liquid nitrogen and heated back to room temperature with warm water ten times to form large unilamellar vesicles (LUVs). The liposome solution was extruded 29 times, using an extrusion kit equipped with a membrane with 200 nm pores. Subsequently, the solution was eluted with the buffer solution used for the experiment through a size exclusion column (Sephadex G-25) to remove the external BCS and then diluted with phosphate buffer to obtain a concentration of 0.4 mM in lipids.
Solutions of the calix[4]arenes were prepared at a concentration of 0.24 mM in DMSO and 5 μL of the solution was added 2 minutes before each transport measurement.
Alternatively, calix[4]arenes were pre-incorporated by combining the calix[4]arene (dissolved in chloroform) with the lipids prior to the evaporation of the chloroform to obtain a lipid film. The concentrations and volumes were chosen to obtain a calix[4]arene to lipid of 1:1000.
Fluorescence measurements were performed with a Horiba FluoroMax 4 spectrometer using a 4-faced quartz cuvette (10 mm×10 mm). For the Cu^+ transport assay, the excitation was set at 278 nm and emission was recorded at 393 nm. These values correspond to the excitation and emission maxima of BCS encapsulated inside LUVs.
The Cu^+ solutions added to the liposomes were obtained by dissolving Cu(MeCN)4BF4 in MeCN at 15.25 mM concentration. The copper solution was then diluted by a factor 5 in a phosphate buffer during the first 30 seconds of the experiment to reach a copper concentration of 3.05 mM. 50 μL of the diluted copper solution was added to 3 mL of liposomes, resulting in a copper gradient of 50 μM. The fluorescence level was monitored for 600 seconds after the addition of the copper solution.
For each run the initial plateau and the initial vertical drop (due to the binding of the exterior dye with Cu^+ and the dilution, 1-4 seconds after the addition) were removed. Then the signal was normalised by dividing the fluorescence values (F) by the value at t=0 second (F0). […]

Experiment [3] relates to H322 lung carcinoma cells. Briefly: MTS cytotoxicity assay on H322. Type of experiment: cell-based. The settings on record: NCI-H322; H322, 72 hours of treatment.
Procedure: H322 lung carcinoma cells were seeded in 96-well plates together with the calix[4]arene of the formula (2). Cells were grown in RPMI-1640 supplemented with GlutaMAX™ (Gibco™) and fetal calf serum (FCS, 10%) and treated with a broad range of concentrations of the calix[4]arene of the formula (2). After 72 hours of treatment, the cytotoxicity was measured by means of the IC50 value, using the kit “CellTiter 96R AQuous One Solution Cell Proliferation Assay (MTS)” from Promega™. Following 30 minutes of incubation with the MTS reagent, the endpoint measurements were done in triplicate at 485 nm, using a fluorescence plate reader.
H322 lung carcinoma cells were seeded in 96-well plates together with the compound of the 2nd comparative example of the formula (XI). Cells were grown in RPMI-1640 supplemented with GlutaMAX™ (Gibco™) and fetal calf serum (FCS, 10%) and treated with a broad range of concentrations of the 2nd comparative example of the formula (XI). After 72 hours of treatment, the cytotoxicity was measured by means of the IC50 value, using the kit “CellTiter 96R AQuous One Solution Cell Proliferation Assay (MTS)” from Promega™. Following 30 minutes of incubation with the MTS reagent, the endpoint measurements were done in triplicate at 485 nm, using a fluorescence plate reader.
H322 lung carcinoma cells were seeded in 96-well plates together with the 1st comparative example of the formula (X). Cells were grown in RPMI-1640 supplemented with GlutaMAX™ (Gibco™) and fetal calf serum (FCS, 10%) and treated with a broad range of concentrations of the compound of the formula (X). After 72 hours of treatment, the cytotoxicity was measured by means of the IC50 value, using the kit “CellTiter 96R AQuous One Solution Cell Proliferation Assay (MTS)” from Promega™. Following 30 minutes of incubation with the MTS reagent, the endpoint measurements were done in triplicate at 485 nm, using a fluorescence plate reader.
H322 lung carcinoma cells were seeded in 96-well plates together with the tested calix[4]arenes. Cells were grown in RPMI-1640 supplemented with GlutaMAX™ (Gibco™) and fetal calf serum (FCS, 10%) and treated with a broad range of concentrations of the tested calix[4]arenes. After 72 hours of treatment, the cytotoxicity was measured by means of the IC50 value, using the kit “CellTiter 96R AQuous One Solution Cell Proliferation Assay (MTS)” from Promega™. Following 30 minutes of incubation with the MTS reagent, the endpoint measurements were done in triplicate at 485 nm, using a fluorescence plate reader.
Experiment [4] has as its system Hepatocellular carcinoma (HepG2/C3A) cells. Kind of experiment: MTT cytotoxicity assay (DL50). In kind it is cell-based. The settings on record: 24 hours of incubation. On the procedure: Cytotoxicity was evaluated using the MTT assay. 1.10^4 cells per well were seeded in a flat-bottom 96-well plate and were incubated for 48 hours at 37° C. with 5% CO2 before addition of the different calix[4]arenes at concentrations up to 200 μM. In all experiments, each condition was performed in triplicate in the plate. Besides, each experiment was done three times independently. After 24 hours of incubation in presence of the compounds, medium was discarded, cells were rinsed with PBS and 100 μL of medium containing 0.5 mg/mL of MTT was added to each well. After 30 minutes of incubation at 37° C., MTT solution was discarded and formazan crystals formed were dissolved in 150 μL of 4 mM HCl, 0.1% NP40 in isopropanol. The absorbance in the wells were read in a microplate reader (Tecan microplate reader-550) at 570 nm.

Experiment [5] relates to A549 human lung cancer cells. Kind of experiment: MTS cytotoxicity assay on A549. Type of experiment: cell-based. The settings on record: A549, 72 hours of treatment.
Procedure: A549 human lung cancer cells were seeded in 96-well plates together with the calix[4]arene of the formula (2). Cells were grown in RPMI-1640 supplemented with GlutaMAX™ (Gibco™) and fetal calf serum (FCS, 10%) and treated with a broad range of concentrations of the calix[4]arene of the formula (2). After 72 hours of treatment, the cytotoxicity was measured by means of the IC50 value, using the kit “CellTiter 96R AQuous One Solution Cell Proliferation Assay (MTS)” from Promega™. Following 30 minutes of incubation with the MTS reagent, the endpoint measurements were done in triplicate at 485 nm, using a fluorescence plate reader.
A549 human lung cancer cells were seeded in 96-well plates together with the compound of the 2nd comparative example of the formula (XI). Cells were grown in RPMI-1640 supplemented with GlutaMAX™ (Gibco™) and fetal calf serum (FCS, 10%) and treated with a broad range of concentrations of the 2nd comparative example of the formula (XI). After 72 hours of treatment, the cytotoxicity was measured by means of the IC50 value, using the kit “CellTiter 96R AQuous One Solution Cell Proliferation Assay (MTS)” from Promega™. Following 30 minutes of incubation with the MTS reagent, the endpoint measurements were done in triplicate at 485 nm, using a fluorescence plate reader. […]
For experiment [6], the system named is PC9 human lung cancer cells. Briefly: MTS cytotoxicity assay on PC9. In kind it is cell-based. The settings on record: PC9, 72 hours of treatment.
Procedure: PC9 human lung cancer cells were seeded in 96-well plates together with the calix[4]arene of the formula (2). Cells were grown in RPMI-1640 supplemented with GlutaMAX™ (Gibco™) and fetal calf serum (FCS, 10%) and treated with a broad range of concentrations of the calix[4]arene of the formula (2). After 72 hours of treatment, the cytotoxicity was measured by means of the IC50 value, using the kit “CellTiter 96R AQuous One Solution Cell Proliferation Assay (MTS)” from Promega™. Following 30 minutes of incubation with the MTS reagent, the endpoint measurements were done in triplicate at 485 nm, using a fluorescence plate reader.
PC9 human lung cancer cells were seeded in 96-well plates together with the 2nd comparative example of the formula (XI). Cells were grown in RPMI-1640 supplemented with GlutaMAX™ (Gibco™) and fetal calf serum (FCS, 10%) and treated with a broad range of concentrations of the compound of the 2nd comparative example of the formula (XI). After 72 hours of treatment, the cytotoxicity was measured by means of the IC50 value, using the kit “CellTiter 96R AQuous One Solution Cell Proliferation Assay (MTS)” from Promega™. Following 30 minutes of incubation with the MTS reagent, the endpoint measurements were done in triplicate at 485 nm, using a fluorescence plate reader. […]
Experiment [7] has as its system Non-malignant MRC5-SVII cells. Kind of experiment: MTS cytotoxicity assay on MRC5-SVII. Type of experiment: cell-based. The following applies: 72 hours of treatment. On the procedure:
Cells were grown in Minimal Essential Medium—Non Essential Amino Acids (MEM NEAA) culture medium from Gibco™, supplemented with sodium pyruvate ([…]), and fetal calf serum (FCS, 10%) and treated with a broad range of concentrations of the 2nd comparative example of the formula (XI).

For `COc1c2cccc1Cc1cccc(c1OCc1nccn1C)Cc1cccc(c1OC)Cc1cccc(c1OCc1nccn1C)C2` [(5)], the “Cu^+ binding” value in experiment [1] was “Strong binding (means an affinity constant (Ka) equal or greater than 10^5 M^−1)”. Moreover, the “Cu^+ transport” value in experiment [2] is “Yes (means that a significant decrease of the fluorescence of encapsulated BCS was observed upon addition of Cu^+ to the liposomes (F/F0<0.65 after 600 s))”. Also, the results for the half-maximal inhibitory concentration (IC50) in experiment [3] and in experiment [4] were greater than 10 µM and 23 µM, respectively.

Take `Cn1ccnc1COc1c2cccc1Cc1cccc(c1O)Cc1cccc(c1OCc1nccn1C)Cc1cccc(c1O)C2` [(6)]: the “Cu^+ binding” value in experiment [1] is listed as “Strong binding (means an affinity constant (Ka) equal or greater than 10^5 M^−1)”. Besides, in experiment [2], the “Cu^+ transport” value is recorded as “Yes (means that a significant decrease of the fluorescence of encapsulated BCS was observed upon addition of Cu^+ to the liposomes (F/F0<0.65 after 600 s))”. Further, the results for the 50% inhibitory concentration (IC50) in experiment [3] and in experiment [4] were greater than 10 µM and 20.7 µM, respectively.

Take `CCCOc1c2cc([N+](=O)[O-])cc1Cc1cccc(c1OCc1nccn1C)Cc1cc([N+](=O)[O-])cc(c1OCCC)Cc1cccc(c1OCc1nccn1C)C2` [(7)]: in experiment [1], the “Cu^+ binding” value was “Strong binding (means an affinity constant (Ka) equal or greater than 10^5 M^−1)”. Moreover, the “Cu^+ transport” value in experiment [2] is “Yes (means that a significant decrease of the fluorescence of encapsulated BCS was observed upon addition of Cu^+ to the liposomes (F/F0<0.65 after 600 s))”. The IC50 in experiment [3] was found to be 5 µM; in experiment [4] it was 10.9 µM.

`CCCOc1c2cccc1Cc1cccc(c1OCCC)Cc1cccc(c1OCCC)Cc1cccc(c1OCCC)C2` [(XI)]: the “Cu^+ binding” value in experiment [1] is given as “Not significant (means that no significant changes of chemical shifts (<0.1 ppm) were observed upon addition of 4-5 equivalents of Cu(MeCN)4BF4)”. The “Cu^+ transport” value in experiment [2] is “No (means that no significant decrease of the fluorescence of encapsulated BCS was observed upon addition of Cu^+ to the liposomes (F/F0 >0.65 after 600 s) when the calix[4]arene was either delivered from a solution in DMSO to liposomes or pre-incorporated into the liposomes)”. For the same compound, the IC50 in experiment [3] is greater than 50 µM; in experiment [5], greater than 50 µM; in experiment [6], greater than 50 µM; in experiment [7], greater than 20 µM; in experiment [4] it was 184 µM.
